Test results: patent US11096941B2, “Methods of treating circadian rhythm sleep disorders” (Eisai R&D Management Co., Ltd., priority 2016, dated 2021)
Marks after values point to notes of the source that are not given here.

Legend:
[1] = tested on: male senescence accelerated mouse resistant-1 (SAMR1, R1) strain animals; experiment: Sleep/wake EEG/EMG recording and wake circadian phase in SAMR1 mice after oral administration; format: in vivo
Text: (§1) A compound of Formula (I) was finely crushed and suspended in vehicle, a mixture of 0.5% w/v methylcellulose 400 cP in distilled water. Experimental data were collected on male senescence accelerated mouse prone-8 (“SAMP8” or “P8”) strain animals and male senescence accelerated mouse resistant-1 (“SAMR1” or “R1”) strain animals at the age of 21 weeks. P8 mice are known to show accelerated symptoms of aging and also pathological and behavioral symptoms of Alzheimer's disease, while R1 mice are used to represent a normal aging process and are also used as a control strain for P8 mice. See, e.g., Miyamoto, et al., Exp. Geron., 1997, 32, 139-48; Morley et al., Curr. Pharm. Des., 2012, 18, 1123-30.
(§2) Electroencephalogram (“EEG”) and electromyogram (“EMG”) electrodes were implanted on each mouse at 17-18 weeks of age, and the mice were then allowed to recover for at least 18 days in individual recording cages, where they could freely move, under a 12-hour light/12-hour dark cycle. Amplified EEG and EMG signals were digitally recorded for 3 days, separated into individual 24-hour recordings, which were initiated at each lights-on event. During the first 30 minutes of the light cycle (ZT 0-0.5), each mouse received an oral administration of either vehicle or 3 mg/kg of the compound of Formula (I) in vehicle or 30 mg/kg of the compound of Formula (I) in vehicle, after which the sleep/wake behavior of mice was recorded until the next lights on event. Each mouse received every treatment in a cross-over fashion with one treatment per day in the following order: vehicle (10 mL/kg bodyweight), 3 mg/kg, and then 30 mg/kg. Some mice started with vehicle on day 1, some mice started with 3 mg/kg compound of Formula (I) on day 1, and some mice started with 30 mg/kg compound of Formula (I) on day 1.
(§3) EEG frequency and EMG activity signal data were analyzed using software from Kissei Comtec Co., Ltd. to characterize every 10 second epoch as either rapid eye movement (REM) sleep, non-REM sleep, or wakefulness. Then, accumulated wakefulness, non-REM sleep, and REM sleep times over the light cycle (11.5 hours) and the dark cycle (12 hours) were calculated. Additionally, latencies to sleep and REM sleep were calculated as the first appearance of 6 or more epochs of uninterrupted sleep or one or more epochs of REM sleep after the dosing event, respectively. The circadian rhythm parameter phase was determined as the inflection point of a cosine curve fit to the wakefulness distribution in 30 minute bins across the day for every individual mouse using JTK_CYCLE software. Hughes, et al., J. Biol. Rhythms, 2010, 25, 372-80.
(§4) The differences between P8 mice and R1 mice (control mice) were statistically analyzed by comparing sleep/wake behavior and circadian rhythm of the vehicle-treated animals of each strain, while the effect of administration of a compound of Formula (I) on sleep/wake behavior and circadian rhythm was statistically analyzed for each strain as the difference between sleep/wake behavior and circadian rhythm on the vehicle-administration day and sleep/wake behavior and circadian rhythm on a drug-administration day. Statistical analysis of wakefulness time, non-REM sleep time, REM sleep time and latency, and sleep latency was performed with a linear mixed model which specified animal as random effect, and day, strain, treatment and the interaction between strain and treatment as fixed effects with Kenward-Roger as denominator degrees of freedom using SAS software. For estimation of wakefulness phase and its covariance, a linear mixed model was used which assumed heterogeneous variance of strain and treatment combination with Kenward-Roger as denominator and degrees of freedom using SAS software.

[2] = tested on: male senescence accelerated mouse prone-8 (SAMP8, P8) strain animals; experiment: Sleep/wake EEG/EMG recording and wake circadian phase in SAMP8 mice after oral administration; format: in vivo; conditions: for Wake circadian phase, Phase (ZT): least square mean ± standard error
Text: as §1, §2, §3, §4

[3] = 3 and 30 mg/kg oral during ZT 0-0.5, vs vehicle
[4] = 3 and 30 mg/kg oral, vs vehicle (FIG. 2)
[5] = P8 mice, 3 mg/kg oral at ZT 0-0.5
[6] = P8 mice, 30 mg/kg oral at ZT 0-0.5
[7] = P8 mice, 3 and 30 mg/kg oral during ZT 0-0.5, vs vehicle
[8] = P8 mice, 3 and 30 mg/kg oral, vs vehicle (FIG. 2)

Cc1ncc(OC[C@@]2(c3cccc(F)c3)C[C@H]2C(=O)Nc2ccc(F)cn2)c(C)n1 [compound of Formula (I), (1R,2S)-2-(((2,4-dimethylpyrimidin-5-yl)oxy)methyl)-2-(3-fluorophenyl)-N-(5-fluoropyridin-2-yl)cyclopropanecarboxamide]
Covariance of Phase ([1]; 3 mg/kg oral at ZT 0-0.5): 5.18
Wake circadian phase, Phase (ZT) ([1]; 3 mg/kg oral at ZT 0-0.5, least square mean ± standard error): 15.65 ± 0.87 ZT
vigilance states (wakefulness, non-REM sleep, REM sleep) during dark time ([1]; 3 mg/kg oral in previous light time, ZT 12-24): no effect on each of the vigilance states
Covariance of Phase ([1]; 30 mg/kg oral at ZT 0-0.5): 0.05
Wake circadian phase, Phase (ZT) ([1]; 30 mg/kg oral at ZT 0-0.5, least square mean ± standard error): 17.02 ± 0.35^a ZT
wakefulness time during dark time ([1]; 30 mg/kg oral in previous light time, ZT 12-24 (FIG. 1A)): decrease of wakefulness
non-REM sleep time during dark time ([1]; 30 mg/kg oral in previous light time, ZT 12-24 (FIG. 1B)): increase of non-REM sleep
wakefulness time during light time ([1]; 3 and 30 mg/kg oral at beginning of light time, ZT 0.5-12, vs vehicle (FIG. 1A)): reduces, in a dose-dependent manner, wakefulness
phase covariance and phase variability (in words) [1, 3]: reduction in phase covariance and phase variability
wake phase shift (in words) [1, 3]: dose-dependent significant delay (right-shift) of the wake phase
non-REM sleep time during light time ([1]; 3 and 30 mg/kg oral, ZT 0.5-12, vs vehicle (FIG. 1B)): increases non-REM sleep
REM sleep time during light time ([1]; 3 and 30 mg/kg oral, ZT 0.5-12, vs vehicle (FIG. 1C)): dose-dependent increase in the amount of REM sleep
REM sleep latency [1, 4]: dose-dependent reduction of sleep and REM sleep latencies
sleep latency [1, 4]: dose-dependent reduction of sleep and REM sleep latencies
Covariance of Phase [2, 5]: 1.32
Wake circadian phase, Phase (ZT) [2, 5]: 14.00 ± 0.56 ZT
Covariance of Phase [2, 6]: 2.11
Wake circadian phase, Phase (ZT) [2, 6]: 15.41 ± 0.64^b ZT
wakefulness time during light time ([2]; P8 mice, 3 and 30 mg/kg oral at beginning of light time, ZT 0.5-12, vs vehicle (FIG. 1A)): reduces, in a dose-dependent manner, wakefulness
phase covariance and phase variability (in words) [2, 7]: reduction in phase covariance and phase variability
wake phase shift (in words) [2, 7]: dose-dependent and significant delay (right-shift) of the wake phase
wakefulness time during dark time ([2]; P8 mice, 3 and 30 mg/kg oral in previous light time, ZT 12-24 (FIG. 1A)): dose-dependent increase in wakefulness
non-REM sleep time during dark time ([2]; P8 mice, 3 and 30 mg/kg oral in previous light time, ZT 12-24 (FIG. 1B)): decreases in non-REM sleep and REM sleep
REM sleep time during dark time ([2]; P8 mice, 3 and 30 mg/kg oral in previous light time, ZT 12-24 (FIG. 1C)): decreases in non-REM sleep and REM sleep
non-REM sleep time during light time ([2]; P8 mice, 3 and 30 mg/kg oral, ZT 0.5-12, vs vehicle (FIG. 1B)): increases non-REM sleep
REM sleep time during light time ([2]; P8 mice, 3 and 30 mg/kg oral, ZT 0.5-12, vs vehicle (FIG. 1C)): dose-dependent increase in the amount of REM sleep
REM sleep latency [2, 8]: dose-dependent reduction of sleep and REM sleep latencies
sleep latency [2, 8]: dose-dependent reduction of sleep and REM sleep latencies
wake phase relative to vehicle-treated R1 mice ([2]; treated P8 mice, administration during ZT 0-0.5): correction to the level of vehicle-treated R1 mice
amounts of wake and non-REM sleep in light time relative to vehicle-treated R1 mice ([2]; treated P8 mice, light time): normalized to the level of vehicle-treated R1 mice
